Results as given in US20240025906A1 (NEURON23, INC., priority 2022, published 2024).
Read-outs that look alike come from different tables or passages of the source.

Tests used:
[1] = target: T1, TYK2 JH2 (Homo sapiens, UniProt P29597); experiment: TYK2 JH2 binding assay (KINOMEscan KdELECT competitive binding); details: TYK2 JH2 domain
T1 construct: purchased DiscoverX (KINOMEscan KdELECT service); host or cells: E. coli BL21-derived (T7 phage display) or HEK-293
Method: Assay A: TYK2 JH2 Binding Assay
Competitive binding studies using TKY2 JH2-domain fragments were conducted by DiscoverX using the KINOMEscan (KdELECT) platform. Kinase-tagged T7 phage strains were prepared in an E. coli host derived from the BL21 strain. E. coli were grown to log-phase and infected with […] and incubated with shaking at 32° C. until lysis. The lysates were centrifuged and filtered to remove cell debris. The remaining kinases were produced in HEK-293 cells and subsequently tagged with DNA for qPCR detection. Streptavidin-coated magnetic beads were treated with biotinylated small molecule ligands for 30 minutes at room temperature to generate affinity resins for kinase assays. The liganded beads were blocked with excess biotin and washed with blocking buffer (SeaBlock (Pierce), 1% BSA, 0.05% Tween 20, 1 mM DTT) to remove unbound ligand and to reduce non-specific binding. Binding reactions were assembled by combining kinases, liganded affinity beads, and test compounds in 1× binding buffer (20% SeaBlock, 0.17×PBS, 0.05% Tween 20, 6 mM DTT). Test compounds were prepared as 111× stocks in 100% DMSO. Kds were determined using an 11-point 3-fold compound dilution series with three DMSO control points. All compounds for Kd measurements are distributed by acoustic transfer (non-contact dispensing) in 100% DMSO. The compounds were then diluted directly into the assays such that the final concentration of DMSO was 0.9%. All reactions performed in polypropylene 384-well plate. Each was a final volume of 0.02 ml. The assay plates were incubated at room temperature with shaking for 1 hour and the affinity beads were washed with wash buffer (1×PBS, 0.05% Tween 20). The beads were then re-suspended in elution buffer (1×PBS, 0.05% Tween 20, 0.5 μM non-biotinylated affinity ligand) and incubated at room temperature with shaking for 30 minutes. The kinase concentration in the eluates was measured by qPCR.

[2] = system: JAK1/TYK2 pSTAT5 (Tyr694/699) in THP-1 cell line; experiment: IFNa-stimulated JAK1/TYK2 pSTAT5 (Tyr694/699) inhibition cellular assay, AlphaLISA; format: cell-based; details: Homo sapiens, THP-1 cells, AlphaLISA (Assay B)
Method: Assay B: JAK1/TYK2 pSTAT5 (Tyr694/699) inhibition IC50 Cellular Assays
To evaluate the inhibition effect of compounds disclosed herein against TYK2, an IFNa-stimulated JAE1/TYK2 pSTAT5 (Tyr694/699) quantification assay was conducted in the THP-1 cell line using an AlphaLISA detection method (PerkinElmer ALSU-PST5). Compounds in DMSO were serially diluted in a 96-well plate (10 mM starting concentration, 6-fold dilutions, 8 concentrations total) prior to dispensing of 8 nL into a 384-well plate using an I.DOT non-contact liquid handler (Dispendix). Cells were collected via centrifugation at 300 ref for 5 min and resuspended in Hanks' Balanced Salt Solution (Gibco 14175-079), and 6 μl containing 2e4 cells was dispensed into each well of the 384-well plate containing test compounds or DMSO alone (final concentrations: 10000, 1666.67, 277.78, 46.30, 7.72, 1.29, 0.21 and 0.04 nM). Cells were then incubated for 1 h at 37° C. with 5% CO2 prior to the addition of 2 μL IFNa (100 ng/mL; PBL Assay Science 11175-1). Following an additional 30 min incubation at 37° C. with 5% CO2, 2 μL of 5× lysis buffer was added to each well using the I.DOT […]. Plates were sealed and incubated at RT for 10 min on a plate shaker set to 400 RPM. Cell lysates were then frozen at −80° C. before subsequent detection of pSTAT5 by AlphaLISA. At the time of the detection assay, cell lysates were thawed for 5 min at room temperature and then on a plate shaker set to 400 RPM for an additional 10 min. Following the manufacturer recommended protocol (Perkin Elmer), 5 μL of acceptor bead master mix was added to each well; plates were then resealed and incubated for 2 min at RT on a plate shaker (400 rpm) prior to an additional 2-h incubation without agitation (protected from light). Donor bead master mix, 5 uL per well, was then added to each well before 2 min of shaking (RT, 400 rpm) and 2-h incubation (RT, no shaking, protected from light). Levels of pSTAT5 protein were then measured as fluorescent signal at 615 nm with an EnVision multimode plate reader (Perkin Elmer). IC50 values were calculated in Dotmatics using the four-parameter logistic curve regression model with bottom fixed to 0 and Hill Slope fixed to −1.

[3] = DiscoverX KINOMEscan KdELECT (Assay A), read-out: Biochemical TYK2_DiscoverX_JH2_BND_Kd
[4] = IFNa-stimulated, read-out: Cellular_THP1_IFNa-pSTATS_TYK2
[5] = KINOMEscan KdELECT (Assay A), read-out: Biochemical TYK2_JH2_Kd
[6] = IFNa-stimulated, read-out: Cellular THP1_IFNa-pSTATS_IC50
[7] = KINOMEscan KdELECT (Assay A), read-out: Biochemical TYK2_DiscoverX_JH2_BND_Kd
[8] = IFNa-stimulated pSTAT5 (Tyr694/699), read-out: Cellular_THP1_IFNa-pSTATS_TYK2

T1 sequence (P29597 589-875 limits assumed): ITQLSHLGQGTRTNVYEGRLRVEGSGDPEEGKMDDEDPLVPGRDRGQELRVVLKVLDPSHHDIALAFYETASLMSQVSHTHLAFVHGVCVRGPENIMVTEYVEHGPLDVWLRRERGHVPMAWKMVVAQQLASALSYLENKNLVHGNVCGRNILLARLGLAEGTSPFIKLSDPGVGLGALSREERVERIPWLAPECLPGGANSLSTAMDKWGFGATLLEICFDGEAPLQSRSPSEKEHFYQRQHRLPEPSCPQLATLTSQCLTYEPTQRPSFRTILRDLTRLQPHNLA

SMILES: CNc1ncc(-c2nc3ccc(N4CCOCC4)cn3n2)c2cc(NC(=O)C3CC3)ncc12 [Example 471, N-(8-(methylamino)-5-(6-morpholino-[1,2,4]triazolo[1,5-a]pyridin-2-yl)-2,7-naphthyridin-3-yl)cyclopropanecarboxamide]
- Kd [1, 3]: ≤ 100 nM
- IC50 [2, 4]: ≤ 500 nM

SMILES: CNc1ncc(C(=O)O)c2cc(NC(=O)C3CC3)ncc12 [Example 120, 6-(cyclopropanecarboxamido)-1-(methylamino)-2,7-naphthyridine-4-carboxylic acid]
- Kd [1, 5]: 100 to 1000 nM
- IC50 [2, 6]: > 500 nM

SMILES: CNc1ncc(-c2nc3cc(OC4COC4)ccc3o2)c2cc(NC(=O)C3CC3)ncc12 [Example 228, N-(8-(methylamino)-5-(5-(oxetan-3-yloxy)benzo[d]oxazol-2-yl)-2,7-naphthyridin-3-yl)cyclopropanecarboxamide]
- Kd [1, 3]: ≤ 100 nM
- IC50 [2, 4]: ≤ 500 nM

SMILES: CNc1ncc(-c2ccn(CCOC)n2)c2cc(NC(=O)C3CC3)ncc12 [Example 852, N-(5-(1-(2-methoxyethyl)-1H-pyrazol-3-yl)-8-(methylamino)-2,7-naphthyridin-3-yl)cyclopropanecarboxamide]
- Kd [1, 7]: ≤ 100 nM
- IC50 [2, 4]: > 500 nM

SMILES: CNc1ncc(C#Cc2cc3ccoc3cn2)c2cc(NC(=O)C3CC3)ncc12 [Example 667, N-(5-(furo[2,3-c]pyridin-5-ylethynyl)-8-(methylamino)-2,7-naphthyridin-3-yl)cyclopropanecarboxamide]
- Kd [1, 7]: ≤ 100 nM
- IC50 [2, 4]: ≤ 500 nM

SMILES: CNc1ncc(-c2nc3ccc(N4C[C@@H](C)O[C@@H](C)C4)cn3n2)c2cc(NC(=O)C3CC3)ncc12 [Example 479, N-(5-(6-((2R,6S)-2,6-dimethylmorpholino)-[1,2,4]triazolo[1,5-a]pyridin-2-yl)-8-(methylamino)-2,7-naphthyridin-3-yl)cyclopropanecarboxamide]
- Kd [1, 3]: ≤ 100 nM
- IC50 [2, 4]: ≤ 500 nM

SMILES: CNc1ncc(-c2nc3ccc(N4CCO[C@@H](C)C4)cn3n2)c2cc(Nc3ccccn3)ncc12 [Example 543, (S)—N^1-methyl-4-(6-(2-methylmorpholino)-[1,2,4]triazolo[1,5-a]pyridin-2-yl)-N^6-(pyridin-2-yl)-2,7-naphthyridine-1,6-diamine]
- Kd [1, 3]: ≤ 100 nM
- IC50 [2, 4]: ≤ 500 nM

SMILES: CNc1ncc(C#Cc2ccc3c(c2)OC=CO3)c2cc(NC(=O)C3CC3)ncc12 [Example 895, N-(5-(benzo[b][1,4]dioxin-6-ylethynyl)-8-(methylamino)-2,7-naphthyridin-3-yl)cyclopropanecarboxamide]
- Kd [1, 7]: ≤ 100 nM
- IC50 [2, 4]: ≤ 500 nM

SMILES: CNc1ncc(C#Cc2ccc(NC(=O)COC)cc2)c2cc(NC(=O)C3CC3)ncc12 [Example 737, N-(5-((4-(2-methoxyacetamido)phenyl)ethynyl)-8-(methylamino)-2,7-naphthyridin-3-yl)cyclopropanecarboxamide]
- Kd [1, 7]: ≤ 100 nM
- IC50 [2, 4]: ≤ 500 nM

SMILES: CNc1ncc(-c2cn3cc(N4CCO[C@@H](C)C4)ccc3n2)c2cc(NC(=O)C3CC3)ncc12 [Example 1052]
- Kd [1, 7]: ≤ 100 nM
- IC50 [2, 8]: ≤ 500 nM

SMILES: CCC(=O)c1cnc(NC)c2cnc(NC(=O)C3CC3)cc12 [Example 128, N-((methylamino)-5-propionyl-2,7-naphthyridin-3-yl)cyclopropanecarboxamide]
- Kd [1, 5]: ≤ 100 nM
- IC50 [2, 6]: > 500 nM

SMILES: CNc1ncc(C#Cc2ccc(Oc3ncn(C)n3)cc2)c2cc(NC(=O)C3CC3)ncc12 [Example 711, N-(5-((4-((1-methyl-1H-1,2,4-triazol-3-yl)oxy)phenyl)ethynyl)-8-(methylamino)-2,7-naphthyridin-3-yl)cyclopropanecarboxamide]
- Kd [1, 7]: ≤ 100 nM
- IC50 [2, 4]: ≤ 500 nM

SMILES: CNc1ncc(-c2nc3ccc(N4CCOCC4)cc3o2)c2cc(NC(=O)C3CC3)ncc12 [Example 355, N-(8-(methylamino)-5-(6-morpholinobenzo[d]oxazol-2-yl)-2,7-naphthyridin-3-yl)cyclopropanecarboxamide]
- Kd [1, 3]: ≤ 100 nM
- IC50 [2, 4]: ≤ 500 nM

SMILES: CNc1ncc(C#Cc2nc3ccccn3n2)c2cc(NC(=O)C3CC3)ncc12 [Example 598, N-(5-([1,2,4]triazolo[1,5-a]pyridin-2-ylethynyl)-8-(methylamino)-2,7-naphthyridin-3-yl)cyclopropanecarboxamide]
- Kd [1, 7]: ≤ 100 nM
- IC50 [2, 4]: ≤ 500 nM

SMILES: [2H]C([2H])(C)Nc1ncc(-c2nc3ccc(N4CCOCC4)cn3n2)c2cc(NC(=O)[C@H]3C[C@H]3C)ncc12 [Example 1095, (1S,2R)—N-(8-((ethyl-1,1-d2)amino)-5-(6-morpholino-[1,2,4]triazolo[1,5-a]pyridine-2-yl)-2,7-naphthyridin-3-yl)-2-methylcyclopropane-1-carboxamide]
- Kd [1, 7]: ≤ 100 nM
- IC50 [2, 8]: ≤ 500 nM

SMILES: CNc1ncc(C#Cc2ccc3c(C)noc3c2)c2cc(NC(=O)C3CC3)ncc12 [Example 748, N-(8-(methylamino)-5-((3-methylbenzo[d]isoxazol-6-yl)ethynyl)-2,7-naphthyridin-3-yl)cyclopropanecarboxamide]
- Kd [1, 7]: ≤ 100 nM
- IC50 [2, 4]: ≤ 500 nM

SMILES: CNc1ncc(C#Cc2ccc(OC)cc2)c2cc(NC(=O)[C@H]3C[C@H]3C)ncc12 [Example 753, (1S,2R)—N-(5-((4-methoxyphenyl)ethynyl)-8-(methylamino)-2,7-naphthyridin-3-yl)-2-methylcyclopropane-1-carboxamide]
- Kd [1, 7]: ≤ 100 nM
- IC50 [2, 4]: ≤ 500 nM

SMILES: CNc1ncc(C#Cc2ccc(OC3CN(C(C)=O)C3)cn2)c2cc(NC(=O)C3(F)CC3)ncc12 [Example 736, N-(5-((5-((1-acetylazetidin-3-yl)oxy)pyridin-2-yl)ethynyl)-8-(methylamino)-2,7-naphthyridin-3-yl)-1-fluorocyclopropane-1-carboxamide]
- Kd [1, 7]: ≤ 100 nM
- IC50 [2, 4]: ≤ 500 nM

SMILES: CNc1ncc(/C=C/c2cccc(OC)c2)c2cc(NC(=O)C3CC3)ncc12 [Example 167, (E)-N-(5-(3-methoxystyryl)-8-(methylamino)-2,7-naphthyridin-3-yl)cyclopropanecarboxamide]
- Kd [1, 5]: ≤ 100 nM
- IC50 [2, 6]: ≤ 500 nM

SMILES: CNc1ncc(-c2nc3cc(N4CCO[C@@H](C)C4)ccc3o2)c2cc(NC(=O)[C@@H]3C[C@@H]3C(F)F)ncc12 (racemic) [Example 413, 2-(difluoromethyl)-N-(8-(methylamino)-5-(5-((S)-2-methylmorpholino)benzo[d]oxazol-2-yl)-2,7-naphthyridin-3-yl)cyclopropane-1-carboxamide]
- Kd [1, 3]: ≤ 100 nM
- IC50 [2, 4]: ≤ 500 nM

SMILES: CNc1ncc(C#Cc2ccc3c(c2)CC[C@@H](COC)O3)c2cc(NC(=O)C3CC3)ncc12 (single isomer, unassigned) [Example 989]
- Kd [1, 7]: ≤ 100 nM
- IC50 [2, 4]: ≤ 500 nM
